Patent US5502065A, “Indole derivatives as 5-HT1 -like agonists” (Pfizer Inc., priority 1992, dated 1996)
Where two headings read alike, the source gives them in different places.

Tests used:
"5-HT1 -like" receptor [1] = biological target: T1, "5-HT1 -like" receptor (Canis lupus familiaris, UniProt P79250); assay: contraction of dog isolated saphenous vein strip ("5-HT1 -like" receptor agonist activity); conditions: for Emax: read-out: […] RELATIVE TO 5-HT RESPONSE, relative to 5-HT response, read-out: PERCENTAGE AGONISM RELATIVE TO 5-HT RESPONSE
T1 construct: dog isolated saphenous vein strip; from tissue; host or cells: dog isolated saphenous vein strip
Procedure: The in vitro evaluation of the "5-HT1 -like" receptor agonist activity of the compounds of the formula (I) is carried out by testing the extent to which they mimic sumatriptan in contracting the dog isolated saphenous vein strip (P. P. A. Humphrey et al., .Br. J. Pharmacol., 94, 1123 (1988)).
The in vitro evaluation of the "5-HT1 -like" receptor agonist activity of the compounds of the invention is carried out by testing the extent to which they mimic sumatriptan in contracting the isolated dog saphenous vein strip (P. P. A. Humphrey et al., Brit. J. Pharmacol., 1988, 94, 1123).
EC50 represents the concentration of compound which causes 50% of the maximum contraction effected by it.

"5-HT1 -like" receptor [2] = biological target: T1, "5-HT1 -like" receptor; conditions: dog isolated saphenous vein strip; cited from earlier work
carotid vascular bed = conditions: anaesthetized dog, cited from earlier work
[3] = dog isolated saphenous vein strip

T1 sequence (P79250 whole entry): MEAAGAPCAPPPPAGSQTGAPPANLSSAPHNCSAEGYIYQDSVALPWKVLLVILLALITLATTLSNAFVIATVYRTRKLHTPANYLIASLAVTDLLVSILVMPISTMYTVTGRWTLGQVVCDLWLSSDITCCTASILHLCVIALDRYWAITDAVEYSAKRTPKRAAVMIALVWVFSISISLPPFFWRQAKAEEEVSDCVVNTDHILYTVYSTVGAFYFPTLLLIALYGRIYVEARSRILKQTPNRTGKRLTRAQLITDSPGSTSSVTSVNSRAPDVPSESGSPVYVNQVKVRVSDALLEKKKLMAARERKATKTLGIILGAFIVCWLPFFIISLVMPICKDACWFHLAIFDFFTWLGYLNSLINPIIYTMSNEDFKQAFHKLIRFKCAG

SMILES	EC50 ("5-HT1 -like" receptor [1]) [nM]	Emax ("5-HT1 -like" receptor [1]; [3]) [%]	further results
CN1CCC[C@@H]1Cc1c[nH]c2ccc(-c3cncc(C#N)c3)cc12 [Example 53]	26	75	–
CSc1ccc2c(c1)C(N1CCN(C)CC1)Cc1ccccc1S2 (centres unmarked) [methiothepin]	–	–	block of saphenous vein contraction (5-HT antagonism) ("5-HT1 -like" receptor [2]): can be blocked
c1ncc(-c2ccc3[nH]cc(C[C@H]4CCCN4CC4CC4)c3c2)cn1 [Example 60, 3-(1-Cyclopropylmethylpyrrolidin-2(R)-ylmethyl)-5-(5-pyrimidinyl)-1H-indole]	9.2	105	–
CN1CCC[C@@H]1Cc1c[nH]c2ccc(-c3cccc(S(N)(=O)=O)c3)cc12 [Example 3]	3.78	85	–
CN1CCC[C@@H]1Cc1c[nH]c2ccc(-c3ccc(CO)o3)cc12 [Example 66, 5-(5-Hydroxymethyl-2-furyl)-3-(1-methylpyrrolidin-2(R)-ylmethyl)-1H -indole]	19	80	–
OCc1ccc(-c2ccc3[nH]cc(C[C@H]4CCCN4)c3c2)cc1 [Example 37, 5-(4-Hydroxymethylphenyl)-3-(pyrrolidin-2(R)-ylmethyl)-1H-indole]	76	72	–
CNS(=O)(=O)Cc1ccc2[nH]cc(CCN(C)C)c2c1 [Sumatriptan]	–	–	carotid vascular resistance (carotid vascular bed): selective increase; carotid arterial blood flow (carotid vascular bed; consequent on increased carotid vascular resistance): decrease
CN(C)C(=O)CCN1CCC[C@@H]1Cc1c[nH]c2ccc(-c3cccc(C(=O)N(C)C)c3)cc12 [Example 46, 3-1-(2-N,N-dimethylcarbamoylethyl)pyrrolidin-2(R)-ylmethyl!5-(3-N,N-dimethylcarbamoylphenyl)-1H-indole]	–	78	EC50 ("5-HT1 -like" receptor [1]; dog isolated saphenous vein strip, concentration of compound which causes 50% of the maximum contraction effected by it, read-out: EC50): 160 nM
CN1CCC[C@@H]1Cc1c[nH]c2ccc(-c3ccc(C(N)=O)s3)cc12 [Example 64, 5-(5-Carbamoyl-2-thienyl)-3-(1-methylpyrrolidin-2(R)-ylmethyl)-1H-indole]	25	79	–
